Tests used:
[1] = system: LDLr mRNA / Luc expression; assay: Expression (AUC) in LDLr−/− mice relative to KL22; type: in vivo; conditions: Table 7b
[2] = system: luciferase (Luc) mRNA expression; assay: Luc expression (AUC) in CD-1 mice relative to MC3; type: in vivo; conditions: for Lipid/MC3 AUC CD-1 mice 0.5 mpk: Table 7b, Luc expression; for Lipid/MC3 Luc CD-1 (mice): Luc expression relative to MC3, CD-1 mice
Protocol: FIG. 15 is a graph summarizing luciferase expression levels at 6 h after administration of nanoparticle compositions containing compounds of the disclosure to CD-1 mice at a dose of 0.5 mpk. Total light flux values were acquired via body luminescent imaging (BLI) 6 h after administration. In this Figure, the numbers 1-7 and 10 refer to the compositions containing Compounds 4-10 and MC3 respectively.
In contrast, hEPO expression in rats induced by administration of nanoparticle composition including compound according to one of formulae (I), (Ia1)-(Ia6), (Ib), (II), (IIa), (III), and (IIIa) was substantially lower than that measured for MC3. […] Table 7c and 7d show additional protein expressions and clearance data from compositions with various compounds disclosed herein as compared to with MC3.

[3] = Particle size and polydispersity index (Zetasizer Nano ZS); type: physicochemical
Source text: Nanoparticle compositions may be characterized by a variety of methods. For example, microscopy (e.g., transmission electron microscopy or scanning electron microscopy) may be used to examine the morphology and size distribution of a nanoparticle composition. Dynamic light scattering or potentiometry (e.g., potentiometric titrations) may be used to measure zeta potentials. Dynamic light scattering may also be utilized to determine particle sizes. Instruments such as the Zetasizer Nano ZS (Malvern Instruments Ltd, Malvern, Worcestershire, UK) may also be used to measure multiple characteristics of a nanoparticle composition, such as particle size, polydispersity index, and zeta potential.
A Zetasizer Nano ZS (Malvern Instruments Ltd, Malvern, Worcestershire, UK) can be used to determine the particle size, the polydispersity index (PDI) and the zeta potential of the nanoparticle compositions in 1×PBS in determining particle size and 15 mM PBS in determining zeta potential.

[4] = system: luciferase (Luc) mRNA expression; assay: Expression of Luc, bioluminescence (total flux) after intravenous administration to mice; type: in vivo; conditions: for Total flux (Luc expression), comparison in words over the time points of the table named: mice i.v. 0.5 mg/kg, 3, 6, 24 hours; for Luc expression in mice compared with MC3 (Table 7a): in words
Protocol: In order to monitor how effectively various nanoparticle compositions deliver therapeutic and/or prophylactic agents to targeted cells, different nanoparticle compositions including a particular therapeutic and/or prophylactic agent (for example, a modified or naturally occurring RNA such as an mRNA) are prepared and administered to rodent populations. Mice are intravenously, intramuscularly, intraarterially, or intratumorally administered a single dose including a nanoparticle composition with a formulation such as those provided in Table 1. In some instances, mice may be made to inhale doses. Dose sizes may range from 0.001 mg/kg to 10 mg/kg, where 10 mg/kg describes a dose including 10 mg of a therapeutic and/or prophylactic agent in a nanoparticle composition for each 1 kg of body mass of the mouse. A control composition including PBS may also be employed.
Upon administration of nanoparticle compositions to mice, dose delivery profiles, dose responses, and toxicity of particular formulations and doses thereof can be measured by enzyme-linked immunosorbent assays (ELISA), bioluminescent imaging, or other methods. For nanoparticle compositions including mRNA, time courses of protein expression can also be evaluated. Samples collected from the rodents for evaluation may include blood, sera, and tissue (for example, muscle tissue from the site of an intramuscular injection and internal tissue); sample collection may involve sacrifice of the animals.
The efficacy of the nanoparticle compositions presented in Tables 1, la, 17-1, 19-1, 20-1 and 21-1 was evaluated with a bioluminescence study. Formulations were administered intravenously to mice (n=6) at a dosage of 0.5 mg/kg (mpk) and bioluminescence measured at 3, 6, and 24 hour time points. The standard MC3 formulation and a PBS control were evaluated for comparison.

[5] = system: hEPO mRNA expression; assay: Expression of hEPO after intravenous administration to rats; type: in vivo; conditions: rats i.v.; 3, 6, 24 hours
Protocol: PBS (phosphate buffered saline) is used as control.
Formulations were prepared according to Table 5 and included mRNA encoding hEPO.
[…] After the 48 hour time point, livers and spleens were harvested and frozen.

[6] = system: hEPO mRNA expression; assay: Expression of hEPO in mice (CD-1); type: in vivo, CD-1 mice; conditions: for Lipid/MC3 AUC: Table 7e, hEPO expression, CD-1 mice, 0.5 mpk
Source text: FIG. 12 is a set of graphs illustrating hEPO expression levels in CD-1 mice dosed with compounds of the disclosure, compared to MC3. PBS is used as control. […] In graphs A-C numbers 1-14 refer to compositions containing the following: 1: Compound 73, 2: Compound 80, 3: Compound 70; 4: Compound 81; 5: Compound 69; 6: Compound 82; 7: Compound 83; 8: Compound 62; 9: Compound 84; 10: Compound 85; 11: Compound 86; 12: Compound 87; 13: MC3; 14: PBS.
FIG. 13 is a graph showing hEPO levels (pg/mL) in CD-1 mice up to −25 h after administration of a nanoparticle composition containing compounds of the disclosure, compared to a composition containing MC3. Numbers 1-13 refer to compositions containing the following: 1: Compound 73, 2: Compound 80, 3: Compound 70; 4: Compound 81; 5: Compound 69; 6: Compound 82; 7: Compound 83; 8: Compound 62; 9: Compound 84; 10: Compound 85; 11: Compound 86; 12: Compound 87; 13: MC3. […]

[7] = Table 1, DOPE 40:20:38.5:1.5, Luc mRNA

| PDI [3, 7] | Structure (SMILES) | Lipid/KL22 AUC LDLr−/− mice 0.5 mpk, LDLr [1] | Lipid/MC3 AUC CD-1 mice 0.5 mpk [2] | Total flux (Luc expression), comparison in words over the time points of the table named [4] | also measured |
| --- | --- | --- | --- | --- | --- |
| 0.160 | CCCCCCCCCCCCN(CCCCCCCCCCCC)CCN(CCCCCCCCC)CC(=O)N1CCN(C(=O)CN(CCCCCCCCC)CCCCCCCCC)CC1 [Compound 6, 2-((2-(Didodecylamino)ethyl)(nonyl)amino)-1-(4-(dinonylglycyl)piperazin-1-yl)ethan-1-one] | 0.37 | 1.72 |  |  |
| 0.110 | CCCCCCCCCCCCN(CCCCCCCCCCCC)CC(=O)N1CCN(C(=O)CN(CCCCCCCCC)CCN(CCCCCCCCC)CCCCCCCCC)CC1 [Compound 8, 2-(Didodecylamino)-1-(4-(N-(2-(dinonylamino)ethyl)-N-nonylglycyl)piperazin-1-yl)ethan-1-one] | 3.74 | 2.33 |  |  |
|  | CCCCCCCC/C=C\CCCCCCCCN(CCO)CCCCCCCC/C=C\CCCCCCCC [Compound 17-8, 2-(Di((Z)-octadec-9-en-1-yl)amino)ethan-1-ol] |  |  | substantially higher flux than compositions including Compounds 17-2, 17-3, and 17-7 |  |
| 0.170 | CCCCCCCCCCCCN(CCCCCCCCCCCC)CC(=O)N1CCN(C(=O)CN(CCCCCCCCCCCC)CCN(CCCCCCCCC)CCCCCCCCC)CC1 [Compound 9, 2-(Didodecylamino)-1-(4-(N-(2-(dinonylamino)ethyl)-N-dodecylglycyl)piperazin-1-yl)ethan-1-one] | 0.58 | 0.73 |  | Size (nm) ([3]; Table 1, lipid:DOPE:Chol:PEG-DMG 40:20:38.5:1.5, Luc mRNA, MC3 standard formulation): 78.0 nm |
|  | CCCCCCCCCCCCN(CCCCCCCCCCCC)CCN1CCN(Cc2ccc(OC)cc2)CC1 [Compound 19-5, N-Dodecyl-N-(2-(4-(4-methoxybenzyl)piperazin-1-yl)ethyl)dodecan-1-amine] |  |  | next highest flux |  |
| 0.130 | CCCCCCCCCCCCN(CCCCCCCCCCCC)CCN(CCCCCCCCC)CC(=O)N1CCN(C(=O)CN(CCCCCCCCCCCC)CCCCCCCCCCCC)CC1 [Compound 10, 2-(Didodecylamino)-1-(4-(N-(2-(didodecylamino)ethyl)-N-nonylglycyl)piperazin-1-yl)ethan-1-one] | 0.71 | 1.14 |  |  |
|  | CCCCCCCCCCCCN(CCCCCCCCCCCC)CCN1CCNCC1 [Compound 19-2, N-Dodecyl-N-(2-(piperazin-1-yl)ethyl)dodecan-1-amine] |  |  | lowest total flux |  |
| 0.130 | CCCCCCCCCCCCN(CCCCCCCCCCCC)CCN(CCCCCCCCCCCC)CC(=O)N1CCN(C(=O)CN(CCCCCCCCC)CCCCCCCCC)CC1 [Compound 7, 2-((2-(Didodecylamino)ethyl)(dodecyl)amino)-1-(4-(dinonylglycyl)piperazin-1-yl)ethan-1-one] | 2.46 | 1.51 |  |  |
|  | CCCCCCCCCCCCN(CCCCCCCCCCCC)CCN(CCCCCCCCCCCC)CCN1CCN(CCN(CCCCCCCCCCCC(=O)OC)CCCCCCCCCCCC(=O)OC)CC1 [Compound 16, Dimethyl 12,12′-((2-(4-(2-((2-(didodecylamino)ethyl)(dodecyl)amino)ethyl)piperazin-1-yl)ethyl)azanediyl)didodecanoate] |  |  |  | hEPO expression at each time point, comparison in words (Table 6) [5]: lowest hEPO expression; PDI ([3]; formulated with hEPO mRNA): 0.140 |
| 0.096 | CCCCCCCCCCCCN(CCCCCCCCCCCC)CCN(CCCCCCCCCCCC)CCN1CCN(CCN(CCCCCCCCCCCC)CCCCCC(=O)OCCCCC)CC1 [Compound 12, Pentyl 6-((2-(4-(2-((2-(didodecylamino)ethyl)(dodecyl)amino)ethyl)piperazin-1-yl)ethyl)(dodecyl)amino)hexanoate] |  |  |  | hEPO expression in mice compared with MC3 (Table 7a) ([6]; mice, in words): substantially higher; Lipid/MC3 Luc CD-1 (mice) [2]: 0.21; Luc expression in mice compared with MC3 (Table 7a) [4]: significantly lower |
|  | CCCCC/C=C\C/C=C\CCCCCCCCN(CCO)CCCCCCCCCCCC [Compound 17-4, 2-(Dodecyl((9Z,12Z)-octadeca-9,12-dien-1-yl)amino)ethan-1-ol] |  |  | substantially higher flux than compositions including Compounds 17-2, 17-3, and 17-7 |  |
|  | CCCCCCCCCN(CCCC(=O)OCCCCC)CCC(=O)N1CCN(C(=O)CCN(CCCCCCCCC)CCN(CCCCCCCCC)CCCCCCCCC)CC1 [Compound 62, Pentyl 4-((3-(4-(3-((2-(dinonylamino)ethyl)(nonyl)amino)propanoyl)piperazin-1-yl)-3-oxopropyl)(nonyl)amino)butanoate] |  |  |  | Lipid/MC3 AUC [6]: 0.97 |
|  | CCCCCCCCCN(CCCC(=O)OCCCCC)CCC1CCCN(C(=O)CN(CCCCCCCCC)CCN(CCCCCCCCC)CCCCCCCCC)C1 (centres unmarked) [Compound 80, Pentyl 4-((2-(1-(N-(2-(dinonylamino)ethyl)-N-nonylglycyl)piperidin-3-yl)ethyl)(nonyl)amino)butanoate] |  |  |  | Lipid/MC3 AUC [6]: 1.74 |
| 0.008 | CCCCCCCCCCCCN(CCCCCCCCCCCC)CCN(CCCCCCCCCCCC)CCN1CCN(CCN(CCCCCC(=O)OCCCCC)CCCCCC(=O)OCCCCC)CC1 [Compound 14, Dipentyl 6,6′-((2-(4-(2-((2-(didodecylamino)ethyl)(dodecyl)amino)ethyl)piperazin-1-yl)ethyl)azanediyl)dihexanoate] |  |  |  | Lipid/MC3 Luc CD-1 (mice) [2]: 0.070; Luc expression in mice compared with MC3 (Table 7a) [4]: significantly lower |
|  | CCCCC/C=C\C/C=C\CCCCCCCCN(CCCCCCCC/C=C\C/C=C\CCCCC)CCN1CCN(CCCCCCCCCCCC)CC1 [Compound 19-6, (9Z,12Z)—N-(2-(4-Dodecylpiperazin-1-yl)ethyl)-N-((9Z,12Z)-octadeca-9,12-dien-1-yl)octadeca-9,12-dien-1-amine] |  |  | next highest flux |  |
| 0.140 | CCCCCCCCCCCCN(CCN(CCCCCCCCC)CCCCCCCCC)CC(=O)N1CCN(C(=O)CN(CCCCCCCCC)CCCCCCCCC)CC1 [Compound 5, 2-(Dinonylamino)-1-(4-(N-(2-(dinonylamino)ethyl)-N-dodecylglycyl)piperazin-1-yl)ethan-1-one] | 1.86 | 2.62 |  |  |

From patent US12396961B2, “Compounds and compositions for intracellular delivery of agents” (ModernaTX, Inc., priority 2015, dated 2025)
